# Earlier results as cited in publication PMC11791199 (Scientific Reports, 2025).
# Starred links: 1 amine or outer side, 2 acyl side, 3 side chain; linkers in the order of their positions; H or OH if unused. Positions of bridges follow the written chain, without caps; N, C: chain ends. Non-standard residues stand in square brackets, D forms with d. Residues, ends and D or L forms follow the SMILES beside them. *: point of attachment. Phe(3R-OH) = O=C([C@@H](N[*:1])[C@H](O[*:3])c1ccccc1)[*:2]; NMeTrp(4-OMe) = CN[C@@H](Cc1c[nH]c2cccc(OC)c12)C(=O)O; NMeaIle = CC[C@@H](C)[C@H](NC)C(=O)O; NMe2Val = CC(C)[C@@H](C(=O)*)N(C)C; NMeT = CN[C@H](C(=O)O)[C@@H](C)O; NMeL = CN[C@@H](CC(C)C)C(=O)O; NMeV = CN[C@H](C(=O)O)C(C)C
# Columns and labels:
# Conditions in all cases: cited from earlier work
# ClpC1P1P2 = ClpC1P1P2 (Mycobacterium tuberculosis, UniProt P9WPC9)
# tuberculosis = system: tuberculosis
# ClpC1 = ClpC1 (Mycobacterium tuberculosis, UniProt P9WPC9)
# ClpC1 NTD = ClpC1 NTD (Mycobacterium tuberculosis, UniProt P9WPC9)
# ClpC1 NTD, sequence (P9WPC9 2-144): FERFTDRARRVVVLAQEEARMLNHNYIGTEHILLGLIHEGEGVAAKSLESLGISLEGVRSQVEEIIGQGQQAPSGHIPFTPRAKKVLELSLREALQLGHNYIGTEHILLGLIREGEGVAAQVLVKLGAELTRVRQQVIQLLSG
# ClpC1, sequence (P9WPC9 whole entry): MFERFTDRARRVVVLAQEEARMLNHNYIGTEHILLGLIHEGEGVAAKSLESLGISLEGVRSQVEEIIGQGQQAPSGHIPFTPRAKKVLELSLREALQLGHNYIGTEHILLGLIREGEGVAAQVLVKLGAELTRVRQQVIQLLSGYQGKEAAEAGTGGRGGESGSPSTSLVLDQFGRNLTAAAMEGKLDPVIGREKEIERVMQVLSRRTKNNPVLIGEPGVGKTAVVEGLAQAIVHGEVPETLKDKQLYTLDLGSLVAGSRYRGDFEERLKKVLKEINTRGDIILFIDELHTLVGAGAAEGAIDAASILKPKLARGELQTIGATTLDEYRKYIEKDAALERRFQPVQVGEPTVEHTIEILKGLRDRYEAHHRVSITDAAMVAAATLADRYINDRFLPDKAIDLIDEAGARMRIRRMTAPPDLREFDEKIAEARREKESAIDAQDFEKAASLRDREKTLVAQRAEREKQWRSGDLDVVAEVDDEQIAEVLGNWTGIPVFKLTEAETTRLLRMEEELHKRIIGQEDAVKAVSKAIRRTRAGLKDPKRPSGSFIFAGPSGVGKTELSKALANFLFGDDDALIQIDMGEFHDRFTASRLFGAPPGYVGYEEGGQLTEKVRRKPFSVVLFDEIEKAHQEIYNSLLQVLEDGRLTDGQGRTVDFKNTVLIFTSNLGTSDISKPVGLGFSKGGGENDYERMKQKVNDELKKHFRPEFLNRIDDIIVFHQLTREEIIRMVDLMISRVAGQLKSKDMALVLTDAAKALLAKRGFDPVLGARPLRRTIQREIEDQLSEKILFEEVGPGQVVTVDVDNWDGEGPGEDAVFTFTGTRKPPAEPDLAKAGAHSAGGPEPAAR
# ClpC1P1P2, sequence (P9WPC9 whole entry): as above
Compound,effect on FITC-casein degradation (ClpC1P1P2),"MIC value, times lower than that of rifampicin or isoniazid (tuberculosis) [times]",effect on ATPase activity (ClpC1),affinity for ClpC1-NTD (ClpC1 NTD)
CC[C@@H](C)[C@@H](C(=O)N[C@@H]1C(=O)N(C)[C@@H]([C@@H](C)O)C(=O)N[C@@H](C(C)C)C(=O)N(C)[C@@H](CC(C)C)C(=O)N[C@@H](C(C)C)C(=O)N(C)[C@@H](C(C)C)C(=O)N(C)[C@@H](Cc2c[nH]c3cccc(OC)c23)C(=O)N[C@@H](C(C)C)C(=O)N[C@@H]([C@H](O)c2ccccc2)C(=O)N[C@@H](C(C)C)C(=O)O[C@@H]1C)N(C)C(=O)[C@@H](NC(=O)[C@H](C(C)C)N(C)C)C(C)C [ecumicin] (NMe2Val-V[NMeaIle]T[NMeT]V[NMeL]V[NMeV][NMeTrp(4-OMe)]V[Phe(3R-OH)]V; ester 3-C),inhibitor,50,strong activator,–
cyclomarin,very modest effects,–,very modest effects,nM affinity
